Experiment: Activation energy of degradation from stability studies
Format: physicochemical
Conditions: formulation without HP-beta-CD, long-term stability results
Method: Activation energy (Ea) is the least possible energy required to start a chemical reaction. Molecules need some kinetic energy or velocity to collide with other molecules to start a reaction. No reaction will take place if the collision doesn't happen, or if the molecules don't have enough kinetic energy. The energy needed to initiate the reaction is known as Activation energy.
The activation energy (Ea) of a reaction is measured in joules (J), kilojoules per mole (kJ/mol) or kilocalories per mole (kcal/mol)
The Activation Energy Formula is as follows: […]
Where A is a constant, k is the rate constant, Ea is the activation energy of degradation in kcal/mol, R is the universal gast constant (1.98 calKmole) and I is the absolute temperature (° K).
In the formulation without HP-beta-CD, Ea of TPZ is calculated as 35 kcal/mole based on the long-term stability results. For the HP-beta-CD new formulation, Ea of the complex is calculated at 44 kcal/mole using a new formulation methodology called “Accelerated Stability Assessment Program (ASAP)” that can be executed in a few weeks with a few storage conditions and temperature ranging from 40° C. to 70° C. inclusive. The higher the activation energy, the more kinetically stable the complex is.

In the case of `Nc1n[n+]([O-])c2ccccc2[n+]1[O-]` [tirapazamine, 3-amino-1,2,4-benotriazine-1,4-di-N-oxide], the “activation energy of degradation (Ea)” value is reported as 35 kcal/mol.

Source: US20250345356A1, “TIRAPAZAMINE COMPOSITIONS AND METHODS” (priority 2024, published 2025)
